Experiments:
Format in all cases: in vivo
[1] = tested on: redroot pigweed (Amaranthus retroflexus, AMARE); test: Pre-emerge test, greenhouse herbicide activity screening; conditions: phytotoxicity rating 0-100, 14 days after application
Outline: (§1)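 Plants grown in 10 cm pots of sandy loam mix received acetone-dissolved compounds through a moving flat-fan nozzle. Doses ranged from 15 to 1000 g ai/ha. Pre-emerge pots were seeded one day earlier, post-emerge pots 8–21 days earlier. Fourteen days on, each pot was graded 0–100 for damage.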

[2] = tested on: barnyardgrass (Echinochloa crus-galli, ECHCG); test: as above; conditions: phytotoxicity rating 0-100, 14 days after application
Outline: (§2)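 Rating: 0–100 visual injury, 14 DAA. Application: acetone, 187 l/ha, 15–1000 g ai/ha, flat-fan track sprayer with nozzle 40–45 cm above soil or canopy. Post-emerge runs used 0.25% v/v surfactant on 2–3 leaf plants.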

[3] = tested on: common ragweed (Ambrosia artemisizfolia L., AMBEL); test: as above; conditions: phytotoxicity rating 0-100, 14 days after application
Outline: as §2

[4] = tested on: green foxtail (Setaria viridis, SETVI); test: as above; conditions: phytotoxicity rating 0-100, 14 days after application
Outline: as §2

[5] = tested on: ivyleaf morningglory (Ipomoea hederacea, IPOHE); test: as above; conditions: phytotoxicity rating 0-100, 14 days after application
Outline: as §2

[6] = tested on: johnsongrass (Sorghum halepense, SORHA); test: as above; conditions: phytotoxicity rating 0-100, 14 days after application
Outline: as §2

[7] = tested on: lambsquarters (Chenopodium album, CHEAL); test: as above; conditions: phytotoxicity rating 0-100, 14 days after application
Outline: as §2

[8] = tested on: large crabgrass (Digitaria sanguinalis, DIGSA); test: as above; conditions: phytotoxicity rating 0-100, 14 days after application
Outline: as §2

[9] = tested on: sicklepod (Cassia obtusifolia, CASOB); test: as above; conditions: phytotoxicity rating 0-100, 14 days after application
Outline: as §2

[10] = tested on: velvetleaf (Abutilon theophrasti, ABUTH); test: as above; conditions: phytotoxicity rating 0-100, 14 days after application
Outline: as §2

[11] = tested on: field corn (Zea mays L., var. Dekalb 535, CORN); test: Pre-emerge test, crop safety; conditions: crop damage rating 0-100, 14 days after application
Outline: (§3)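 Applied at 15–1000 g ai/ha from acetone in 187 l/ha spray volume. Post-emergence applications included 0.25% v/v non-ionic surfactant and reached plants sown 8–21 days before. Pre-emergence applications were incorporated by surface watering. Efficacy or crop damage was rated on a 0–100 scale after 14 days.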

[12] = tested on: upland rice (Oryza sp., var. Tebonnet, RICE); test: Pre-emerge test, crop safety; conditions: crop damage rating 0-100, 14 days after application
Outline: as §3

[13] = tested on: barnyardgrass (Echinochloa crus-galli, ECHCG); test: Post-emerge test, greenhouse herbicide activity screening; conditions: post-emerge, 14 days after application, rating scale 0-100
Outline: as §2

[14] = tested on: green foxtail (Setaria viridis, SETVI); test: as above; conditions: post-emerge, 14 days after application, rating scale 0-100
Outline: as §2

[15] = tested on: ivyleaf morningglory (Ipomoea hederacea, IPOHE); test: as above; conditions: post-emerge, 14 days after application, rating scale 0-100
Outline: as §2

[16] = tested on: johnsongrass (Sorghum halepense, SORHA); test: as above; conditions: post-emerge, 14 days after application, rating scale 0-100
Outline: as §2

[17] = tested on: lambsquarters (Chenopodium album, CHEAL); test: as above; conditions: post-emerge, 14 days after application, rating scale 0-100
Outline: as §2

[18] = tested on: large crabgrass (Digitaria sanguinalis, DIGSA); test: as above; conditions: post-emerge, 14 days after application, rating scale 0-100
Outline: as §2

[19] = tested on: redroot pigweed (Amaranthus retroflexus, AMARE); test: as above; conditions: post-emerge, 14 days after application
Outline: as §2

[20] = tested on: sicklepod (Cassia obtusifolia, CASOB); test: as above; conditions: post-emerge, 14 days after application, rating scale 0-100
Outline: as §2

[21] = tested on: velvetleaf (Abutilon theophrasti, ABUTH); test: as above; conditions: post-emerge, 14 days after application, rating scale 0-100
Outline: as §2

[22] = tested on: field corn (Zea mays L., var. Dekalb 535, CORN); test: Post-emerge test, crop safety; conditions: post-emerge, 14 days after application, rating scale 0-100
Outline: as §1

[23] = tested on: upland rice (Oryza sp., var. Tebonnet, RICE); test: Post-emerge test, crop safety; conditions: post-emerge, 14 days after application, rating scale 0-100
Outline: as §1

[24] = 63 g ai/ha, rating scale 0-100 (0 no damage, 100 complete death)
[25] = 250 g ai/ha, rating scale 0-100

## CCCCCC(=O)Nc1c(OC)c(Cl)cc(F)c1-n1c(=O)cc(C(F)(F)F)n(C)c1=O [2-198]
[1]; 63 g ai/ha
  Pre-emerge Herbicidal Activity AMARE: 100
[1]; 250 g ai/ha
  Pre-emerge Herbicidal Activity AMARE: 100
[2]; 63 g ai/ha
  Pre-emerge Herbicidal Activity ECHCG: 50
[2]; 250 g ai/ha
  Pre-emerge Herbicidal Activity ECHCG: 100
[3]; 63 g ai/ha
  Pre-emerge Herbicidal Activity AMBEL: 100
[3]; 250 g ai/ha
  Pre-emerge Herbicidal Activity AMBEL: 100
[4]; 63 g ai/ha
  Pre-emerge Herbicidal Activity SETVI: 90
[4]; 250 g ai/ha
  Pre-emerge Herbicidal Activity SETVI: 100
[5]; 63 g ai/ha
  Pre-emerge Herbicidal Activity IPOHE: 100
[5]; 250 g ai/ha
  Pre-emerge Herbicidal Activity IPOHE: 100
[6]; 63 g ai/ha
  Pre-emerge Herbicidal Activity SORHA: 50
[6]; 250 g ai/ha
  Pre-emerge Herbicidal Activity SORHA: 99
[7]; 63 g ai/ha
  Pre-emerge Herbicidal Activity CHEAL: 100
[7]; 250 g ai/ha
  Pre-emerge Herbicidal Activity CHEAL: 100
[8]; 63 g ai/ha
  Pre-emerge Herbicidal Activity DIGSA: 100
[8]; 250 g ai/ha
  Pre-emerge Herbicidal Activity DIGSA: 100
[9]; 63 g ai/ha
  Pre-emerge Herbicidal Activity CASOB: 50
[9]; 250 g ai/ha
  Pre-emerge Herbicidal Activity CASOB: 100
[10]; 63 g ai/ha
  Pre-emerge Herbicidal Activity ABUTH: 100
[10]; 250 g ai/ha
  Pre-emerge Herbicidal Activity ABUTH: 100
[11]; 63 g ai/ha
  Pre-emerge Herbicidal Activity CORN: 50
[11]; 250 g ai/ha
  Pre-emerge Herbicidal Activity CORN: 90
[12]; 63 g ai/ha
  Pre-emerge Herbicidal Activity RICE: 30
[12]; 250 g ai/ha
  Pre-emerge Herbicidal Activity RICE: 80
[13]; 63 g ai/ha
  phytotoxicity rating ECHCG: 5
[13]; 250 g ai/ha
  phytotoxicity rating ECHCG: 5
[14]; 63 g ai/ha
  phytotoxicity rating SETVI: 10
[14]; 250 g ai/ha
  phytotoxicity rating SETVI: 10
[15]; 63 g ai/ha
  phytotoxicity rating IPOHE: 80
[15]; 250 g ai/ha
  phytotoxicity rating IPOHE: 100
[16]; 63 g ai/ha
  phytotoxicity rating SORHA: 0
[16]; 250 g ai/ha
  phytotoxicity rating SORHA: 50
[17]; 63 g ai/ha
  phytotoxicity rating CHEAL: 80
[17]; 250 g ai/ha
  phytotoxicity rating CHEAL: 90
[18]; 63 g ai/ha
  phytotoxicity rating DIGSA: 10
[18]; 250 g ai/ha
  phytotoxicity rating DIGSA: 10
[19]; [24]
  phytotoxicity rating AMARE: 80
[19]; [25]
  phytotoxicity rating AMARE: 95
[20]; 63 g ai/ha
  phytotoxicity rating CASOB: 50
[20]; 250 g ai/ha
  phytotoxicity rating CASOB: 30
[21]; 63 g ai/ha
  phytotoxicity rating ABUTH: 80
[21]; 250 g ai/ha
  phytotoxicity rating ABUTH: 100
[22]; 63 g ai/ha
  phytotoxicity rating CORN (crop damage): 10
[22]; 250 g ai/ha
  phytotoxicity rating CORN (crop damage): 40
[23]; 63 g ai/ha
  phytotoxicity rating RICE (crop damage): 10
[23]; 250 g ai/ha
  phytotoxicity rating RICE (crop damage): 30

## Cn1c(C(F)(F)F)cc(=O)n(-c2c(F)cc(Cl)c(OCC#N)c2NC(=O)c2ccc3ccccc3c2)c1=O [2-200]
[1]; 63 g ai/ha
  Pre-emerge Herbicidal Activity AMARE: 100
[1]; 250 g ai/ha
  Pre-emerge Herbicidal Activity AMARE: 100
[2]; 63 g ai/ha
  Pre-emerge Herbicidal Activity ECHCG: 99
[2]; 250 g ai/ha
  Pre-emerge Herbicidal Activity ECHCG: 100
[3]; 63 g ai/ha
  Pre-emerge Herbicidal Activity AMBEL: 100
[3]; 250 g ai/ha
  Pre-emerge Herbicidal Activity AMBEL: 100
[4]; 63 g ai/ha
  Pre-emerge Herbicidal Activity SETVI: 100
[4]; 250 g ai/ha
  Pre-emerge Herbicidal Activity SETVI: 100
[5]; 63 g ai/ha
  Pre-emerge Herbicidal Activity IPOHE: 100
[5]; 250 g ai/ha
  Pre-emerge Herbicidal Activity IPOHE: 100
[6]; 63 g ai/ha
  Pre-emerge Herbicidal Activity SORHA: 100
[6]; 250 g ai/ha
  Pre-emerge Herbicidal Activity SORHA: 100
[7]; 63 g ai/ha
  Pre-emerge Herbicidal Activity CHEAL: 100
[7]; 250 g ai/ha
  Pre-emerge Herbicidal Activity CHEAL: 100
[8]; 63 g ai/ha
  Pre-emerge Herbicidal Activity DIGSA: 100
[8]; 250 g ai/ha
  Pre-emerge Herbicidal Activity DIGSA: 100
[9]; 63 g ai/ha
  Pre-emerge Herbicidal Activity CASOB: 80
[9]; 250 g ai/ha
  Pre-emerge Herbicidal Activity CASOB: 100
[10]; 63 g ai/ha
  Pre-emerge Herbicidal Activity ABUTH: 100
[10]; 250 g ai/ha
  Pre-emerge Herbicidal Activity ABUTH: 100
[11]; 63 g ai/ha
  Pre-emerge Herbicidal Activity CORN: 75
[11]; 250 g ai/ha
  Pre-emerge Herbicidal Activity CORN: 100
[12]; 63 g ai/ha
  Pre-emerge Herbicidal Activity RICE: 80
[12]; 250 g ai/ha
  Pre-emerge Herbicidal Activity RICE: 100
[13]; 63 g ai/ha
  phytotoxicity rating ECHCG: 0
[13]; 250 g ai/ha
  phytotoxicity rating ECHCG: 0
[14]; 63 g ai/ha
  phytotoxicity rating SETVI: 30
[14]; 250 g ai/ha
  phytotoxicity rating SETVI: 50
[15]; 63 g ai/ha
  phytotoxicity rating IPOHE: 100
[15]; 250 g ai/ha
  phytotoxicity rating IPOHE: 100
[16]; 63 g ai/ha
  phytotoxicity rating SORHA: 0
[16]; 250 g ai/ha
  phytotoxicity rating SORHA: 0
[17]; 63 g ai/ha
  phytotoxicity rating CHEAL: 100
[17]; 250 g ai/ha
  phytotoxicity rating CHEAL: 100
[18]; 63 g ai/ha
  phytotoxicity rating DIGSA: 0
[18]; 250 g ai/ha
  phytotoxicity rating DIGSA: 0
[19]; [24]
  phytotoxicity rating AMARE: 100
[19]; [25]
  phytotoxicity rating AMARE: 100
[20]; 63 g ai/ha
  phytotoxicity rating CASOB: 100
[20]; 250 g ai/ha
  phytotoxicity rating CASOB: 100
[21]; 63 g ai/ha
  phytotoxicity rating ABUTH: 100
[21]; 250 g ai/ha
  phytotoxicity rating ABUTH: 100
[22]; 63 g ai/ha
  phytotoxicity rating CORN (crop damage): 10
[22]; 250 g ai/ha
  phytotoxicity rating CORN (crop damage): 20
[23]; 63 g ai/ha
  phytotoxicity rating RICE (crop damage): 10
[23]; 250 g ai/ha
  phytotoxicity rating RICE (crop damage): 20
